# Laboratory results from patent publication US20060252807A1, “Novel ortho-terphenyl inhibitors of p38 kinase and methods of treating inflammatory disorders” (Kalypsys, Inc., priority 2005, published 2006).
# Target: T1, active p38 alpha enzyme (Upstate Biotechnology) (Homo sapiens, UniProt Q16539)
# T1 construct: purchased Upstate Biotechnology
# Assay: p38α biochemical assay (ATP turnover, luminescent detection, Cambrex PKlight)
# Details: p38α biochemical assay, Table 1 Biological Activity
# Procedure: The p38α biochemical assay employed is based on measurement of total ATP turnover following enzyme incubation with substrate in the presence of ATP with the use of a luminescent detection reagent (Cambrex PKlight). The assays were performed in 1536-well white opaque plates.
# The final volume was 7.5005 μL as prepared prepared from the addition of 5 ul of kinase reaction (p38 alpah+MapkapK2+ATP) with 0.0005 μL compound dissolved in DMSO, and 2.5 ul of the detection reagent. Assay buffer contains the following reagents to give final concentration in the assay: 200 mM Tris, 100 mM MgCl2, 1.5 mM EGTA, 4 mM CaCl2, 20 mM MOPS, 1 mM EDTA, 1% glycerol, 0.1% B-Mecaptoethanol, and 1 mg/ml BSA. Test compounds are pinned using proprietary pintool technology (Kalypsys, Inc) and delivered as […] amounts into the 5 ul mixture of active p38 alpha enzyme (Upstate Biotechnology) and MapkapK2 (Upstate Biotechnology) whole protein as a substrate for phosphorylation in the presence of 1.4 uM final concentration ATP. Reactions are incubated at 30C for 2 hours and detection reagent is added in 2.5 ul/well amounts. Assay is read using a Perkin Elmer Viewlux.
# T1 sequence (Q16539 whole entry): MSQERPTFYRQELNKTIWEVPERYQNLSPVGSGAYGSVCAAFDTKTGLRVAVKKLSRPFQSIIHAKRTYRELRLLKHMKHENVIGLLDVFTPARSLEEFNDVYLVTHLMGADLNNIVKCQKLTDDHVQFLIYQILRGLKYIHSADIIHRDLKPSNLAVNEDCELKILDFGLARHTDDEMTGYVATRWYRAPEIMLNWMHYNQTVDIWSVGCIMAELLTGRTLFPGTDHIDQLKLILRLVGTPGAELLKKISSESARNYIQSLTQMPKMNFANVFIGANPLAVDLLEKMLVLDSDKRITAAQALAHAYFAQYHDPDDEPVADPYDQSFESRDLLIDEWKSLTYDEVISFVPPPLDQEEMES
row,SMILES,IC50
1,CC(C)NC(=O)c1csc(-c2c(-c3ccc(F)cc3)noc2CNC(=O)c2ccncc2Cl)n1 [Example 631],≤ 1000 nM
2,CC(C)NC(=O)c1csc(-c2c(-c3ccc(F)cc3)noc2CNC(=O)c2ccc([N+](=O)[O-])cc2Cl)n1 [Example 747],≤ 1000 nM
3,Cc1cccc(C(=O)NCc2onc(-c3ccc(F)cc3)c2-c2nc(C(=O)NC(C)C)cs2)c1 [Example 596],> 1000 nM
4,CC(C)NC(=O)c1csc(-c2oc(CNC(=O)C(C)NC(=O)OC(C)(C)C)nc2-c2ccc(F)cc2)n1 (centres unmarked) [Example 248],> 1000 nM
5,CCc1ccc(C(=O)N2CCN(Cc3nc(-c4ccc(F)cc4)c(-c4nc(C(=O)NC(C)C)cs4)o3)CC2)cc1 [Example 377],> 1000 nM
6,CC(C)NC(=O)c1csc(-c2oc(CNC(=O)C3CCCN3C(=O)OCc3ccccc3)nc2-c2ccc(F)cc2)n1 (centres unmarked) [Example 327],> 1000 nM
7,CC(C)NC(=O)c1csc(-c2oc(CNC(=O)/C=C/c3ccc4c(c3)OCO4)nc2-c2ccc(F)cc2)n1 [Example 255],> 1000 nM
8,Cc1ccccc1CC(=O)N1CCN(Cc2nc(-c3ccc(F)cc3)c(-c3nc(C(=O)NC(C)C)cs3)o2)CC1 [Example 372],> 1000 nM
9,CC(C)NC(=O)c1csc(-c2oc(CNC(=O)c3ccncc3Cl)nc2-c2ccc(F)cc2)n1 [Example 156],≤ 1000 nM
10,"Cc1onc(-c2cccc(C(F)(F)F)c2)c1-c1ccn(C(=O)NC(C)C)n1 [Example 19, 3-|5-Methyl-3-(3-trifluoromethyl-phenyl)-isoxazol-4-yl|-pyrazole-1-carboxylic acid isopropylamide]",> 1000 nM
11,CC(C)NC(=O)c1csc(-c2c(-c3ccc(F)cc3)noc2CNC(=O)C2=CCCC2)n1 [Example 582],> 1000 nM
12,Cc1ccccc1CC(=O)NCc1onc(-c2ccc(F)cc2)c1-c1nc(C(=O)NC(C)C)cs1 [Example 610],> 1000 nM
13,"Cc1onc(-c2ccc(Cl)cc2)c1-c1ccn(C(=O)CC(C)C)n1 [Example 20, 1-{3-|3-(4-Chloro-phenyl)-5-methyl-isoxazol-4-yl|-pyrazol-1-yl}-3-methyl-butan-1-one]",> 1000 nM
14,CC(C)NC(=O)c1csc(-c2oc(CNC(=O)c3ccc(-c4ccc(O)cc4)cc3)nc2-c2ccc(F)cc2)n1 [Example 291],≤ 1000 nM
15,"Cc1nc(-c2ccc(F)cc2)c(-c2nc(C(=O)NCCO)cs2)s1 [Example 49, 4′-(4-Fluoro-phenyl)-2′-methyl-|2,5′|bithiazolyl-4-carboxylic acid (2-hydroxy-ethyl)-amide]",≤ 1000 nM
16,CC(C)NC(=O)c1csc(-c2oc(CNC(=O)c3ccccc3C=O)nc2-c2ccc(F)cc2)n1 [Example 132],> 1000 nM
17,COc1ccc(O)c(C(=O)N2CCN(Cc3nc(-c4ccc(F)cc4)c(-c4nc(C(=O)NC(C)C)cs4)o3)CC2)c1 [Example 424],≤ 1000 nM
18,COc1cccc(C(=O)NCc2onc(-c3ccc(F)cc3)c2-c2nc(C(=O)NC(C)C)cs2)c1OC [Example 703],> 1000 nM
19,CC(C)NC(=O)c1csc(-c2c(-c3ccc(F)cc3)noc2CNC(=O)c2cc(F)c(F)cc2[N+](=O)[O-])n1 [Example 753],> 1000 nM
20,CC(C)NC(=O)c1csc(-c2oc(CN3CCN(C(=O)c4ccc5ncccc5c4)CC3)nc2-c2ccc(F)cc2)n1 [Example 434],≤ 1000 nM
21,CC(C)NC(=O)c1csc(-c2oc(CN3CCN(C(=O)c4ccccc4Oc4ccccc4)CC3)nc2-c2ccc(F)cc2)n1 [Example 526],> 1000 nM
22,CCCCCc1ccc(C(=O)N2CCN(Cc3nc(-c4ccc(F)cc4)c(-c4nc(C(=O)NC(C)C)cs4)o3)CC2)cc1 [Example 494],> 1000 nM
23,"CC(C)NC(=O)c1csc(-c2c(-c3ccc(F)cc3)ncn2C)n1 [Example 86, 2-|5-(4-Fluoro-phenyl)-3-methyl-3H-imidazol-4-yl|-thiazole-4-carboxylic acid isopropylamide]",≤ 1000 nM
24,CC(C)NC(=O)c1csc(-c2c(-c3ccc(F)cc3)noc2CNC(=O)c2cc(Cl)ccc2[N+](=O)[O-])n1 [Example 750],> 1000 nM
25,CC(C)NC(=O)c1csc(-c2c(-c3ccc(F)cc3)noc2CNC(=O)C(C(C)C)N(C)C(=O)OC(C)(C)C)n1 (centres unmarked) [Example 793],> 1000 nM
26,CC(C)NC(=O)c1csc(-c2oc(CN3CCN(C(=O)/C=C/c4ccccc4O)CC3)nc2-c2ccc(F)cc2)n1 [Example 403],≤ 1000 nM

# Same assay, conditions: p38α kinase; Table 1 Biological Activity
row,SMILES,IC50
1,Cc1nc(-c2ccc(F)cc2)c(-c2nc(C(=O)NC3CCC3)cs2)s1 [Example 1714],≤ 1000 nM
2,CCOc1ccccc1CNC(=O)c1csc(-c2c(-c3ccc(F)cc3)n[nH]c2C2CCNCC2)n1 [Example 2124],> 1000 nM
3,CC(C)NC(=O)c1csc(-c2c(-c3ccc(F)cc3)noc2CN(C)CCc2ccccn2)n1 [Example 1554],≤ 1000 nM
4,CCCC(C)NC(=O)c1csc(-c2sc(C)nc2-c2ccc(F)cc2)n1 (centres unmarked) [Example 1722],> 1000 nM
5,CC(=O)Nc1ccc(NC(=O)c2csc(-c3sc(C)nc3-c3ccc(F)cc3)n2)cn1 [Example 2001],≤ 1000 nM
6,O=C(NCc1ccccn1)c1csc(-c2c(-c3ccc(F)cc3)n[nH]c2C2CCNCC2)n1 [Example 2063],> 1000 nM
7,CC(C)NCc1onc(-c2ccc(F)cc2)c1-c1nc(C(=O)NC(C)C)cs1 [Example 1387],> 1000 nM
8,CCC(C(=O)N1CCC(c2[nH]nc(-c3ccc(F)cc3)c2-c2nc(C(=O)NC(C)C)cs2)CC1)c1ccccc1 (centres unmarked) [Example 888],> 1000 nM
9,CC(C)NC(=O)c1csc(-c2oc(CNCc3ccccc3F)nc2-c2ccc(F)cc2)n1 [Example 1105],> 1000 nM
10,CC(C)NC(=O)c1csc(-c2c(-c3ccc(F)cc3)n[nH]c2C2CCN(C(=O)c3ccccc3[N+](=O)[O-])CC2)n1 [Example 898],> 1000 nM
11,CC(C)NC(=O)c1csc(-c2oc(CNc3ccc(N(C)C)cc3)nc2-c2ccc(F)cc2)n1 [Example 1359],> 1000 nM
12,CNCc1nc(-c2ccc(F)cc2)c(-c2nc(C(=O)NC(C)C)cs2)o1 [Example 1049],> 1000 nM
13,Cc1cc(C(=O)N2CCC(c3[nH]nc(-c4ccc(F)cc4)c3-c3nc(C(=O)NC(C)C)cs3)CC2)ccc1Br [Example 1006],> 1000 nM
14,O=C(NCCN1CCOCC1)c1csc(-c2c(-c3ccc(F)cc3)n[nH]c2C2CCNCC2)n1 [Example 2087],> 1000 nM
15,CCN(CC)Cc1nc(-c2ccc(F)cc2)c(-c2nc(C(=O)NC(C)C)cs2)o1 [Example 1188],> 1000 nM
16,CC(C)NC(=O)c1csc(-c2c(-c3ccc(F)cc3)noc2CN2CCN(c3cccc(Cl)c3)CC2)n1 [Example 1599],> 1000 nM
17,CCC(C)CNCc1nc(-c2ccc(F)cc2)c(-c2nc(C(=O)NC(C)C)cs2)o1 (centres unmarked) [Example 1068],> 1000 nM
18,COc1ccccc1CCNC(=O)c1csc(-c2c(-c3ccc(F)cc3)n[nH]c2C2CCNCC2)n1 [Example 2123],> 1000 nM

row,SMILES,IC50
1,Cc1nc(-c2ccc(F)cc2)c(-c2nc(C(=O)N3C(C)CCCC3C)cs2)s1 (centres unmarked) [Example 1858],> 1000 nM
2,CC(C)NCc1nc(-c2ccc(F)cc2)c(-c2nc(C(=O)NC(C)C)cs2)o1 [Example 1054],> 1000 nM
3,Cc1cccc(CNC(=O)c2csc(-c3c(-c4ccc(F)cc4)n[nH]c3C3CCNCC3)n2)c1 [Example 2073],> 1000 nM
4,CC(C)NC(=O)c1csc(-c2c(-c3ccc(F)cc3)noc2CNCC#N)n1 [Example 1385],≤ 1000 nM
5,CC(C)NC(=O)c1csc(-c2c(-c3ccc(F)cc3)n[nH]c2C2CCN(C(=O)C3CCCN3C(=O)OC(C)(C)C)CC2)n1 (centres unmarked) [Example 1009],> 1000 nM
6,Cc1ccc(N2CCN(Cc3nc(-c4ccc(F)cc4)c(-c4nc(C(=O)NC(C)C)cs4)o3)CC2)c(C)c1 [Example 1267],> 1000 nM
7,COc1ccccc1N1CCN(Cc2onc(-c3ccc(F)cc3)c2-c2nc(C(=O)NC(C)C)cs2)CC1 [Example 1596],> 1000 nM
8,CC(=O)c1cccc(C(=O)N2CCC(c3[nH]nc(-c4ccc(F)cc4)c3-c3nc(C(=O)NC(C)C)cs3)CC2)c1 [Example 883],> 1000 nM
9,CC(C)NC(=O)c1csc(-c2c(-c3ccc(F)cc3)n[nH]c2C2CCN(C(=O)c3ccc(OC(C)C)cc3)CC2)n1 [Example 933],> 1000 nM
10,CC(C)NC(=O)c1csc(-c2c(-c3ccc(F)cc3)noc2CN(CCc2ccccc2)Cc2ccccc2)n1 [Example 1612],> 1000 nM
11,Cc1nc(-c2ccc(F)cc2)c(-c2nc(C(=O)N3CCc4ccccc4C3)cs2)s1 [Example 1874],> 1000 nM
12,COc1ccc(CNCc2onc(-c3ccc(F)cc3)c2-c2nc(C(=O)NC(C)C)cs2)cc1OC [Example 1490],> 1000 nM
13,"COCCOCn1nc(-c2ccc(F)cc2)c(-c2nc(C=O)cs2)c1C [Example 2161, 2-|3-(4-Fluoro-phenyl)-1-(2-methoxy-ethoxymethyl)-5-methyl-1H-pyrazol-4-yl|-thiazole-4-carbaldehyde]",> 1000 nM
14,CC(C)NC(=O)c1csc(-c2oc(CNCc3ccncc3)nc2-c2ccc(F)cc2)n1 [Example 1087],> 1000 nM
15,Cc1nc(-c2ccc(F)cc2)c(-c2nc(C(=O)Nc3ccc(OC(F)(F)F)cc3)cs2)s1 [Example 2011],> 1000 nM
16,Cc1nc(-c2ccc(F)cc2)c(-c2nc(C(=O)NCCc3ccccc3)cs2)s1 [Example 1754],≤ 1000 nM
17,COc1ccc(C(=O)N2CCC(c3[nH]nc(-c4ccc(F)cc4)c3-c3nc(C(=O)NC(C)C)cs3)CC2)cc1 [Example 855],> 1000 nM
18,CCCCN(C)Cc1nc(-c2ccc(F)cc2)c(-c2nc(C(=O)NC(C)C)cs2)o1 [Example 1194],> 1000 nM
